The source of these data is a melting point compilation (Tetko et al.; mined from patent text by program, amines drawn as free bases though some values may be those of a salt).

Structures are written as SMILES. Some results are limits rather than exact numbers.

In turn, `CC(=O)Oc1ccccc1C(=O)C1c2ccccc2C(=O)N1CCO[N+](=O)[O-]` (stereo not drawn) returned a melting point of 81 to 83 °C.

The compound `CC(=O)N(c1cc([N+](=O)[O-])c(F)cc1Cl)S(=O)(=O)CCl` returned a melting point of 183 to 187 °C.

For `O=CNc1ccccc1N1CCc2cc(Cl)ccc21`, the melting point was in the range of 126 to 129 °C.

As to `O=C(Nc1ccc(Br)cn1)Nc1cccc2c1C1CC3(CCN1C2=O)SCCS3` (stereo not drawn), the melting point was found to be 240 °C.

`O=C1O[C@@H](CO)CN1c1ccc2ncccc2c1`: the melting point came out at 165 °C.

For the compound `CC[C@@H](c1ccccc1)N(Cc1ccc(C(=O)O)cn1)S(=O)(=O)c1ccc(Cl)cc1`, the melting point fell in the range of 112 to 113 °C.

Regarding `COc1ccc2oc(C(=O)NCc3ccccc3)c(OC(C)C)c2c1`, the melting point is 68 to 69 °C.

Consider `NC1=NN(/C=N/O)C(=O)C1Cc1ccccc1` (stereo not drawn), for which the melting point was in the range of 105 to 108 °C.

Regarding `COc1cc(NC(=O)C(C)(C)C)ccc1C(=O)N(C)C`, the melting point was in the range of 143 to 144 °C.

Compound `CCCc1nc2c(N)nc3cccnc3c2n1CC1(O)CCOCC1` displayed a melting point of 209 to 210 °C.

For the compound `CCCC(=O)Nc1c(C)c(C)c2c(c1C)CC(C)(C)O2`, the melting point was 136 to 138 °C.

Take `O=[N+]([O-])c1ccc(Oc2ccccc2)nc1`: the melting point fell in the range of 84 to 86 °C.

As for `CC(Sc1nc(Cl)cc(NCc2ccc(Cl)cc2)n1)C(=O)O` (stereo not drawn), the melting point was 133 to 136 °C.

As for `CCOC(=O)COc1ccc(Br)cc1C1C(C(=O)OCC)=C(C)NC(C)=C1C(=O)OCC`, the melting point was 153 to 154 °C.

The compound `COc1ncnc2c1C(c1cccc([N+](=O)[O-])c1)C(C(=O)OC(C)C)=C(C)N2` (stereo not drawn) yielded a melting point of 212 to 213 °C.

With `CCCCCCCCCCCCN(c1ccccc1)c1cccc2ccccc12`, the melting point was 116 °C.

For `Cc1cccc2c1-n1nnnc1SC2`, the melting point came out at 174 °C.

As to `CCN(CC)c1ccc2c(c1)Oc1cc(OC)c(N(c3ccccc3)c3ccccc3)cc1C2c1ccccc1C(=O)OC` (stereo not drawn), the melting point lay within 117 to 119 °C.

Turning to `O=C1COc2ccc(C3=Nc4ccccc4SC3c3ccc(Cl)cc3)cc2N1` (stereo not drawn), the melting point was in the range of 153 to 155 °C.

`COc1cc(Cc2nc(NC(C)C)c3c(C)c(C#N)sc3n2)cc(OC)c1OC`: the melting point was in the range of 143 to 147 °C.

`COC(=O)c1ccc(OCC2CN(c3ccc(N)cc3)C(=O)O2)cc1` (stereo not drawn) had a melting point of 139 to 142 °C.

Compound `CCCCCCSCC(O)COc1cccc2oc(C(=O)O)cc(=O)c12` (stereo not drawn) showed a melting point of 97 to 100 °C.

`CN(C)CCN(c1ccccc1NCCOc1ccc(Cl)cc1)S(=O)(=O)c1ccc(Cl)cc1`: the melting point turned out to be 99 °C.

Turning to `CCCCCCCCCCCCCCCCCC(=O)NCC(C)(C)CO`, the melting point came to 44 °C.

As for `C#CCONC(=O)c1nc(-c2ccc(Cl)c(OC)c2F)cc(N)c1Cl`, the melting point lay in the range of 180 to 183 °C.

`N#Cc1ccc(CN2CCCNC2=C[N+](=O)[O-])cn1`: the melting point lay within 214 to 216 °C.

Consider `c1ccc(C(=C2CCNCC2)c2ccccc2)cc1`, for which the melting point lay within 85 to 86 °C.

As for `CN1CCc2c(-c3ccc(Cl)cc3)ccc([N+](=O)[O-])c2C1`, the melting point was 162 to 163 °C.

The compound `CC1=C(C(=O)OCC(C)C)C(c2cccc([N+](=O)[O-])c2)c2c(nc(N3CCOCC3)nc2N2CCOCC2)N1` (stereo not drawn) displayed a melting point of 214 °C.

For `CC(=O)N1CCc2c(sc(C)c2CCN2CCC(c3noc4cc(F)ccc34)CC2)C1`, the melting point lay within 70 to 75 °C.

As for `CCN(C(=O)OC(C)(C)C)C1CC=C(c2c[nH]c3ccc(NC(=N)c4cccs4)cc23)CC1` (stereo not drawn), the melting point was 124 to 126 °C.

Compound `CC(NC(=O)/C=C\C(=O)O)C(O)c1ccccc1` (stereo not drawn) registered a melting point of 154 to 156 °C.

With `COc1ccc(C(CC(=O)O)N2Cc3ccccc3C2=O)cc1OC` (stereo not drawn), the melting point lay within 146 to 148 °C.

`O=C(c1ccc(Cl)cc1)c1cncnc1` displayed a melting point of 110 to 112 °C.

Turning to `CC(=O)NC1CN(C)S(=O)(=O)c2sc(S(N)(=O)=O)cc21` (stereo not drawn), the melting point was 252 to 253 °C.

In turn, `CCCc1ccnc2c(=O)[nH]c(-c3cc(N)ccc3OCC)nc12` had a melting point of 156 to 158 °C.

In turn, `O=C1C(=Cc2cccc3ccccc23)CCc2cc(OCCn3ccnc3)ccc21` displayed a melting point of 147 to 148 °C.

In turn, `CC(C)(C)NC(=O)[C@@H]1C[C@H](Cl)CN1C(=O)[C@@H](O)[C@H](Cc1ccccc1)NC(=O)[C@H](CC(N)=O)NC(=O)OCc1ccccc1` had a melting point of 103 to 107 °C.

`CC(C)(C)OC(=O)N1CCN(C(=O)C(F)(F)F)CC1` had a melting point of 66 to 68 °C.

Compound `Cc1cc(Br)nc2c1OCC(=O)N2` came in with a melting point of 174 °C.

Take `CCOC(=O)c1cc2ccc(C)c(Cl)c2[nH]1`: the melting point fell in the range of 73 to 75 °C.

`COc1cccc2c1CC(C(=O)NCCOc1ccc(C(=O)O)cc1)N2S(=O)(=O)c1ccc(-c2ccc(F)cc2F)cc1` (stereo not drawn) gave a melting point of 206 °C.

Turning to `COc1ccc2c(C)nnc(Cl)c2c1`, the melting point is 151 to 153 °C.

Turning to `O=C1Nc2ccccc2C12COc1ccc3c(c12)N(Cc1ccccn1)ON3` (stereo not drawn), the melting point lay in the range of 180 to 182 °C.

Consider `Cc1cc(C)c(Nc2nc(C)ccc2S(=O)(=O)c2ccc(OCCCC#N)cc2)c(C)c1`, for which the melting point was in the range of 160 to 162 °C.

`CCCOCCOc1ccccc1COc1ccc2c(c1)C=C(C(=O)Nc1ccc(CN(C)C3CCOCC3)cc1)CCS2(=O)=O` had a melting point of 136 to 138 °C.

For `Clc1ccc2c(c1)ncc1ncsc12`, the melting point was in the range of 199 to 200 °C.

For `Cc1cc(-c2cccc(-c3ccc(C4(O)C5CCC4CN(Cc4ccccc4)C5)cc3)n2)c(C)[nH]1` (stereo not drawn), the melting point lay in the range of 58 to 68 °C.

The compound `CCOC(=O)c1cc(NC(C)=O)ccc1O` came in with a melting point of 135 to 136 °C.

Compound `COC(=O)C=CC(=CN(C)C)C(=O)OC` gave a melting point of 62 °C.

`C[C@@H](Oc1c(Br)cc(-c2c3ccccc3c(Br)c3sc4ccccc4c23)cc1Br)C(=O)O` yielded a melting point of 131 to 133 °C.

Regarding `CCOC(=O)C1=Cc2cc(Cl)cc(-c3ccccc3)c2OC1C(F)(F)F` (stereo not drawn), the melting point was in the range of 196 to 198 °C.

In turn, `C[C@@H](O)[C@H](NC(=O)Cc1ccccc1)C(=O)O` came in with a melting point of 118 to 120 °C.

The compound `Clc1ccc(N2CCN(Cc3n[nH]c4ccccc34)CC2)nc1` yielded a melting point of 203 to 204 °C.

In turn, `Cc1cc(=O)[nH]c2cc(OCCCN3CCN(c4cccc(Cl)c4)CC3)ccc12` came in with a melting point of 212 to 214 °C.

In turn, `CCCn1c(=O)c2[nH]cnc2n(-c2ccc(Cl)cc2)c1=O` came in with a melting point of 233 to 234 °C.

For `BrC/C(=C(\CBr)c1ccccc1)c1ccccc1`, the melting point turned out to be 98 °C.

Take `COC(=O)c1[nH]c2c(OCc3ccccc3)cc([N+](=O)[O-])c(CCCl)c2c1C(=O)OC`: the melting point was 122 to 128 °C.

The compound `NC(=O)c1cc(Cl)c(Cl)cc1C(=O)O` registered a melting point of 197 to 201 °C.

Compound `COc1cccc(/C=C/C(=O)N2CC(CCl)c3c2cc([N+](=O)[O-])c2ccccc32)c1` (stereo not drawn) registered a melting point of 200 °C.

`COC(=O)N[C@H]1Cc2ccc(N)cc2C1`: the melting point lay in the range of 140 to 142 °C.

Take `Cc1ccc(S(=O)(=O)N(C)c2ccccc2[N+](=O)[O-])cc1`: the melting point was determined as 132 °C.

`COc1cc(CNC(c2ccccc2)c2ccccc2)ccc1O` returned a melting point of 115 to 118 °C.

`CCCOC(C)c1cccc2[nH]c3cnc(C(=O)OCC)c(COC)c3c12` (stereo not drawn): the melting point was 127 to 130 °C.

The compound `CCC(C)n1cc(Cl)nc(N2CCc3cc(OC)cc(Br)c32)c1=O` (stereo not drawn) showed a melting point of 155 to 157 °C.

`CC(=O)Nc1cc(N(C)C)ccc1C(=O)c1ccccc1C(=O)O` displayed a melting point of 174 to 181 °C.

For `O=C(NN=Cc1c(O)ccc2ccccc12)c1cc2ccccc2cc1O`, the melting point was over 300 °C.

Take `CNC(=O)Nc1ccc(S(N)(=O)=O)cc1`: the melting point was 211 to 213 °C.

In the case of `CC(=O)N[C@@H](C)COc1ccc(-c2nc3ccc(OCC4CC4)cc3o2)nc1`, the melting point was in the range of 179 to 180 °C.

Regarding `CCOC(=O)C1=C(C(=O)OCC)C(c2cccc([N+](=O)[O-])c2)C(C(=O)OCC)=C(CC)N1` (stereo not drawn), the melting point worked out at 153 °C.

In turn, `COC(=O)c1cc(Cl)c(Cl)cc1C#N` registered a melting point of 120 to 123 °C.

As for `CC12CCC3C(CC(O)C4CC(=O)CCC43C)C1CCC2O` (stereo not drawn), the melting point was 195 to 205 °C.

Compound `CCOc1nc2c(C(=O)OC)sc(C)c2[nH]1` came in with a melting point of 209 to 210 °C.

As to `O=c1[nH]c2ncc(-c3ccc4cc[nH]c4c3)nc2n1CC1CCCCC1`, the melting point was in the range of 359 to 363 °C.

With `CCOc1nc(N2CCN(C(=O)CCC(=O)O)CC2)nc(N2CCS(=O)CC2)c1[N+](=O)[O-]`, the melting point lay in the range of 198 to 200 °C.

`O=C(Nc1ccc(-n2nc(C3CCCO3)cc2C(F)(F)F)cc1)c1ccncc1F` (stereo not drawn) displayed a melting point of 116 to 118 °C.

The compound `C#Cc1cc(Cl)cc2c1OC(C(F)(F)F)C(C(=O)O)=C2` (stereo not drawn) registered a melting point of 186 to 189 °C.

`N#CC1=C(c2ccncc2)Nc2n[nH]cc2C1c1cccc2nonc12` (stereo not drawn) returned a melting point of 236 °C.

For `CN1C(=O)N(c2c(Cl)cccc2Cl)Cc2cnc(N)nc21`, the melting point was in the range of 176 to 184 °C.

As for `Cc1nc(-c2cccc(-c3nc4sccn4c3-c3ccnc(N[C@@H]4CCCNC4)n3)c2)no1`, the melting point was in the range of 203 to 207 °C.

`O=C(CCl)Nc1cc2c(Nc3cc(Cl)c(Cl)cc3F)ncnc2cc1OCCOCCF` returned a melting point of 167 to 169 °C.

Regarding `O=C1CCCC(O)=C1C(=O)Nc1ccc(Cl)cc1`, the melting point fell in the range of 113 to 114 °C.

In the case of `Clc1ccc(Cn2cc(C=NNc3nc(-c4ccc(Cl)cc4Cl)cs3)c3ccccc32)c(Cl)c1`, the melting point worked out at 185 °C.

In turn, `CN(C)C(=O)c1cc(O)ccc1C=Cc1ccc(O)cc1` registered a melting point of 184 to 188 °C.

For the compound `CN(Cc1cc(C(F)(F)F)cc(C(F)(F)F)c1)C(=O)c1c(-c2ccc(F)cc2)c2nccnc2c(=O)n1C`, the melting point is 220 to 222 °C.

Regarding `CCOC(=O)c1c2ccc(CC(=O)NOCC(=O)N3CCCC3)ccc-2c(C(=O)OCC)c1N`, the melting point lay in the range of 168 to 170 °C.

`CN(Cc1cc2c3c(c1)c(=O)c(C(=O)NCc1ccc(F)cc1)cn3CC(=O)N2C)C[C@@H](O)c1cc2ccccc2o1` registered a melting point of 94 to 96 °C.

Take `O=C(Nc1ccc(C(=O)N2CCCc3ccccc32)cc1)c1ccc(CO)cc1`: the melting point was 224 to 226 °C.
